Where a name gives a salt, the structure may show the parent alone.
Legend:
[1] = Dynamic vapor sorption (DVS); format: physicochemical; conditions: for DVS weight gain: 25° C., listed as Form III of the potassium salt
Method: Moisture sorption/desorption data was collected on a Vsorp Dynamic Moisture Sorption Analyzer (ProUmid GmbH & Co. KG, Germany). The sample was placed into a tared sample chamber and automatically weighed.
• Equilibrium Condition: 0.01%/40 min • Time between weighing cycles: 10 minutes • Minimum time per climate cycle: 50 minutes • Maximum time per climate cycle: 2.0 hour • Balanced condition: 25° C. at 60% […] for 4 hours • Sample temperature: 25° C. • Adsorption: 70, 80, 90 • Desorption: 80, 70, 60, 50, 40, 30, 20, 10, 0 • Adsorption: 10, 20, 30, 40, 50, 60

[2] = Water activity study of the crystalline potassium salt forms (acetone/water suspension, XRPD); format: physicochemical; conditions: KF wt. %>0.19, 25-50° C., KF wt. %~0.1, 25° C. in acetone/water
Method: A water activity study of the potassium salt forms was conducted in two groups: (i) Form I and Form III of the potassium salt, and (ii) Form II and Form III of the potassium salt.
Each suspension was shaken at 700 rpm in a shaker at 25° C., 35° C., 45° C., and 50° C., and the sample was analyzed by XRPD.

DVS weight gain ([1]; 0 to 80% relative humidity): around 0.18%
DVS weight gain ([1]; 0 to 90% relative humidity): ~0.23%
DVS weight gain ([1]; 60 to 80% relative humidity): around 0.13%
Relative stability of crystalline forms ([2]; versus Form I of the potassium salt): more stable
Relative stability of crystalline forms ([2]; versus Form II of the potassium salt): more stable
Structure (SMILES): CNC(=O)c1ncn2cc(-c3c(F)ccc(NS(=O)(=O)c4cc(Cl)cnc4OC)c3F)ncc12 [Potassium salt Form III, 6-(3-((5-chloro-2-methoxypyridine)-3-sulfonamido)-2,6-difluorophenyl)-N-methylimidazo[1,5-a]pyrazine-1-carboxamide]
Hygroscopicity (DVS) ([1]; class by weight gain to 80% relative humidity): non-hygroscopic (non-hygroscopic may be defined as a <0.2% weight gain to 80% relative humidity)

From patent US20260224563A1, “CRYSTALLINE FORMS OF 6-(3-((5-CHLORO-2-METHOXYPYRIDINE)-3-SULFONAMIDO)-2,6-DIFLUOROPHENYL)-N-METHYLIMIDAZO[1,5-A]PYRAZINE-1-CARBOXAMIDE AND METHODS FOR USING THE SAME” (HIBERCELL, INC., priority 2023, published 2026)
